The source of these data is ChEMBL document CHEMBL1156102, “Identification of iminooxothiazolidines as secreted frizzled related protein-1 inhibitors” (Bioorg Med Chem Lett, 2009).

Calls of active or inactive are those of the source. The calls are words filed in the database; no cut-off is given here.

Test [1] has as its target T1, Secreted frizzled-related protein 1 (Homo sapiens) (UniProt Q8N474).
T1 sequence (whole entry): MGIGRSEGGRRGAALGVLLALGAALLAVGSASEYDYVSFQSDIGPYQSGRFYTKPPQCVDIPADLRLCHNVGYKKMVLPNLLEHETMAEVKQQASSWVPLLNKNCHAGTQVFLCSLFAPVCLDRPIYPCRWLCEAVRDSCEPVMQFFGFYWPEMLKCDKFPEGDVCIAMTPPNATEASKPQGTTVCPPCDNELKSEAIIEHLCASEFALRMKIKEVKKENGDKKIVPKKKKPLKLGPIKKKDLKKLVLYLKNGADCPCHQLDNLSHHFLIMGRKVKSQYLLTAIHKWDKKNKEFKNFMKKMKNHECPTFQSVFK
The experiment in a line: Inhibition of human SFRP1 transfected in human U20S cells at 15 uM by TCF-luciferase reporter gene assay relative to control. The format is cell-based. To be noted: U2OS. Background: Reporter assays use an easily measured gene product as a stand-in for the process of interest.

The target of test [2] is T1, Secreted frizzled-related protein 1 (Homo sapiens). Put plainly: Inhibition of human SFRP1 transfected in human U20S cells at 30 uM by TCF-luciferase reporter gene assay relative to control. The format is cell-based. To be noted: U2OS.
For test [3], the species on record is Mus musculus. Put plainly: Ex vivo osteogenic activity in mouse calvaria assessed in increase in total bone area at 15 uM. The format is functional.
The species entered for test [4] is Mus musculus. Put plainly: Ex vivo osteogenic activity in mouse calvaria assessed in increase in osteoblasts number at 15 uM. The format is functional.
Test [5] addresses T2, Secreted frizzled-related protein 1 (Homo sapiens, UniProt Q8N474).
T2 sequence (Q8N474 whole entry): T1 sequence (whole entry)
Put plainly: Binding affinity to human SFRP1 by fluorescence spectroscopy.

Test [6] addresses Proto-oncogene Wnt-3 (Homo sapiens) (UniProt P56703). The experiment in a line: Binding affinity to Wnt3.
For test [7], the target named is Secreted frizzled-related protein 1 (Homo sapiens) (UniProt Q8N474). The experiment in a line: Inhibition of human SFRP1.
Test [8] addresses T2, Secreted frizzled-related protein 1. Put plainly: Inhibition of human SFRP1 transfected in human U20S cells by TCF-luciferase reporter gene assay. The format is cell-based, U2OS.

Proto-oncogene Wnt-3 (Homo sapiens), sequence (P56703 whole entry): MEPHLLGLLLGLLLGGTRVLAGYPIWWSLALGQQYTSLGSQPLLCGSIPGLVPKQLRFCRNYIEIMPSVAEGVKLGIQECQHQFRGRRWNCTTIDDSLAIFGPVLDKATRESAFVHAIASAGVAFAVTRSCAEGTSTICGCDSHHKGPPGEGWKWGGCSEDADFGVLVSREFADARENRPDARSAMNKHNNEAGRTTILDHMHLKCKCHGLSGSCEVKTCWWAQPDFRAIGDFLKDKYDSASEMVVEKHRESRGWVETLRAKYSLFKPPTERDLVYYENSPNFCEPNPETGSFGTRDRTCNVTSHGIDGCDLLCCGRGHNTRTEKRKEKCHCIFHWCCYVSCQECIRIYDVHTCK

For `COC(=O)c1cc(-c2ccccc2)sc1NC(=O)CC1SC(=N)NC1=O` (stereo unspecified), the fold change (FC) in test [1] worked out at 0.9.

Consider `CCOC(=O)c1c(NC(=O)CC2SC(=N)NC2=O)sc(C)c1-c1ccccc1` (stereo unspecified), for which the fold change (FC) in test [1] turned out to be 1.8.

Turning to `CCOC(=O)c1c(NC(=O)CC2S/C(=N/C)N(C)C2=O)sc(C)c1C` (stereo unspecified), the fold change (FC) in test [1] was found to be 1.2. Same read-out and setting: the result for `CCOC(=O)c1c(NC(=O)CC2SC(=O)NC2=O)sc2c1CCCC2` (stereo unspecified) reads 1. `N=C1NC(=O)C(CC(=O)Nc2ccccc2)S1` (stereo unspecified): in test [2], the fold change (FC) was found to be 1.1. Turning to `CCOC(=O)c1c(NC(=O)CC2SC(=N)NC2=O)sc2c1CCC2` (stereo unspecified), in test [1], the fold change (FC) came out at 1.5. Consider `N=C1NC(=O)C(CC(=O)Nc2cccc(Cl)c2Cl)S1` (stereo unspecified), for which the fold change (FC) in test [2] was determined as 1. As to `CCOC(=O)c1c(NC(=O)CC2SC(=N)NC2=O)sc2c1CCCC2` (stereo unspecified), the fold change (FC) in test [1] amounted to 1.6.

Regarding `CCOC(=O)c1c(NC(=O)CC2SC(=N)NC2=O)sc(C)c1C` (stereo unspecified), the fold change (FC) in test [1] was 2.3. Further, the result in the test listed under Mus musculus [3] and in the test filed under Mus musculus [4] was Active. As to `CCOC(=O)c1c(NC(=O)CC2SC(=N)NC2=O)sc(Br)c1C` (stereo unspecified), the fold change (FC) in test [1] was determined as 2.6. Still for that read-out and setting: the result for `CCOC(=O)c1ccccc1NC(=O)CC1SC(=N)NC1=O` (stereo unspecified) reads 1.1. Take `CC/N=C1\NC(=O)C(CC(=O)Nc2sc(C)c(C)c2C(=O)OCC)S1` (stereo unspecified): the fold change (FC) in test [1] was determined as 1.2. In the case of `N=C1NC(=O)C(CC(=O)Nc2cccc(Cl)c2)S1` (stereo unspecified), the fold change (FC) in test [2] stood at 1.7. Take `CCOC(=O)c1cccc(NC(=O)CC2SC(=N)NC2=O)c1` (stereo unspecified): in test [2], the fold change (FC) worked out at 1.5. Consider `COC(=O)c1ccsc1NC(=O)CC1SC(=N)NC1=O` (stereo unspecified), for which the fold change (FC) in test [1] came out at 1.2. The same measure, in the same setting: the same measure for `CCOC(=O)c1c(NC(=O)CC2SC(=N)NC2=O)sc(Br)c1CNc1ccccc1` (stereo unspecified): 2.5.

As for `COC(=O)c1c(NC(=O)CC2SC(=N)NC2=O)sc(C)c1C` (stereo unspecified), in test [1], the fold change (FC) stood at 1.9. Also, binding in test [5] was put at a Kd of 0.72 µM. Moreover, the outcome in test [6] and in test [7] was Active. Moreover, the EC50 in test [8] came to 7.2 µM. For the compound `CCOC(=O)c1c(NC(=O)CC2SC(=N)NC2=O)sc(-c2ccccc2)c1C` (stereo unspecified), the fold change (FC) in test [1] turned out to be 0.8. Same read-out and setting: the same measure for `CCOC(=O)c1c(C)csc1NC(=O)CC1SC(=N)NC1=O` (stereo unspecified): 2; for `N#Cc1c(NC(=O)CC2SC(=N)NC2=O)sc2c1CCCC2` (stereo unspecified): 1.2. The same measure, in the same setting: the same measure for `CCOC(=O)c1cc(CC)sc1NC(=O)CC1SC(=N)NC1=O` (stereo unspecified): 1.7. In the case of `N=C1NC(=O)C(CC(=O)NCc2cccc(Cl)c2)S1` (stereo unspecified), the fold change (FC) in test [2] is 1. With `N=C1NC(=O)C(CC(=O)Nc2sc3c(c2C(N)=O)CCCC3)S1` (stereo unspecified), in test [1], the fold change (FC) amounted to 1.1. On the same count and under the same terms, the result for `CCOC(=O)c1c(NC(=O)CC2S/C(=N/C)NC2=O)sc(C)c1C` (stereo unspecified) reads 1.2; that for `CCOC(=O)c1c(NC(=O)CC2SC(=N)NC2=O)sc2c1CCCCC2` (stereo unspecified), 1.9.

The term Kd denotes the free concentration of one partner at which half of the binding sites on the other are occupied at equilibrium, for simple one-to-one binding. A word on the EC50: it is the concentration at which the effect is half-maximal. Low values mean a more potent agent, high ones a less potent agent.
